This is an account of results in the NIST ThermoML archive (doi:10.1016/j.jct.2019.06.007).

The structures appear in SMILES notation. ± gives the expanded uncertainty stated by the source.

For the data set the following is noted: Crystal; DTA.

As for `Cn1c(=O)c2c(ncn2CC(O)CO)n(C)c1=O` (stereo unspecified), the Normal melting temperature came to 159.90 ± 1.1 °C.
